Test: molar heat capacity at constant pressure
Conditions: 101.33 kPa, Vacuum adiabatic calorimetry

[2H]O[2H] [water-d2]
molar heat capacity at constant pressure [J/K/mol]
Conditions	Crystal	Liquid
5 K	0.0363	–
6.58 K	0.0659	–
7.08 K	0.141	–
7.56 K	0.12	–
8.12 K	0.158	–
8.61 K	0.19	–
9.07 K	0.222	–
9.51 K	0.261	–
9.94 K	0.305	–
10 K	0.315	–
10.37 K	0.358	–
10.8 K	0.407	–
11.22 K	0.462	–
11.65 K	0.523	–
12.68 K	0.659	–
13.4 K	0.774	–
14.11 K	0.8996	–
14.93 K	1.051	–
15 K	1.07	–
15.65 K	1.193	–
16.38 K	1.337	–
17.11 K	1.492	–
17.84 K	1.652	–
18.58 K	1.814	–
19.33 K	1.982	–
20 K	2.125	–
20.08 K	2.152	–
21.87 K	2.524	–
24.35 K	3.102	–
25 K	3.246	–
26.84 K	3.651	–
29.35 K	4.206	–
30 K	4.322	–
31.87 K	4.729	–
34.41 K	5.231	–
36.93 K	5.723	–
39.46 K	6.213	–
40 K	6.304	–
41.98 K	6.674	–
44.5 K	7.12	–
47.01 K	7.558	–
49.52 K	8.018	–
50 K	8.154	–
52.01 K	8.514	–
54.5 K	9.012	–
56.99 K	9.486	–
59.48 K	9.885	–
60 K	9.968	–
62.01 K	10.32	–
64.5 K	10.83	–
66.98 K	11.22	–
69.45 K	11.66	–
70 K	11.72	–
71.93 K	12.02	–
74.43 K	12.44	–
76.9 K	12.74	–
79.38 K	13.19	–
80 K	13.39	–
81.85 K	13.77	–
82.58 K	13.86	–
84.31 K	14.14	–
84.89 K	14.3	–
87.37 K	14.74	–
89.84 K	15.12	–
90 K	15.16	–
92.31 K	15.57	–
94.78 K	15.98	–
97.24 K	16.41	–
99.71 K	16.82	–
100 K	16.89	–
102.17 K	17.25	–
104.63 K	17.71	–
107.09 K	18.15	–
109.53 K	18.67	–
110 K	18.7	–
111.98 K	19.03	–
114.42 K	19.58	–
116.87 K	19.92	–
119.31 K	20.41	–
120 K	20.48	–
121.79 K	20.81	–
124.23 K	21.21	–
126.67 K	21.62	–
129.11 K	22.03	–
130 K	22.2	–
131.54 K	22.45	–
133.98 K	22.91	–
136.41 K	23.27	–
138.85 K	23.7	–
140 K	23.89	–
141.28 K	24.08	–
143.71 K	24.5	–
146.14 K	24.9	–
148.57 K	25.31	–
150 K	25.54	–
151 K	25.71	–
153.43 K	26.1	–
155.87 K	26.52	–
158.32 K	26.94	–
160 K	27.2	–
160.81 K	27.33	–
163.26 K	27.73	–
165.71 K	28.13	–
168.15 K	28.55	–
170 K	28.83	–
170.6 K	28.97	–
173.05 K	29.33	–
175.5 K	29.73	–
177.94 K	30.14	–
180 K	30.47	–
180.39 K	30.54	–
182.83 K	30.96	–
185.28 K	31.33	–
187.72 K	31.71	–
190 K	32.09	–
190.17 K	32.11	–
192.61 K	32.48	–
195.05 K	32.9	–
197.5 K	33.29	–
199.99 K	33.7	–
200 K	33.7	–
202.44 K	34.08	–
204.88 K	34.48	–
207.33 K	34.88	–
210 K	35.29	–
210.91 K	35.46	–
213.05 K	35.74	–
215.49 K	36.17	–
217.93 K	36.56	–
220 K	36.86	–
220.38 K	36.96	–
222.82 K	37.34	–
225.26 K	37.72	–
227.71 K	38.06	–
230 K	38.45	–
230.15 K	38.5	–
232.58 K	38.89	–
235.03 K	39.22	–
237.47 K	39.55	–
239.91 K	39.99	–
240 K	40.05	–
242.35 K	40.38	–
244.78 K	40.92	–
247.23 K	41.27	–
249.73 K	41.6	–
250 K	41.64	–
252.17 K	41.99	–
254.61 K	42.32	–
257.04 K	42.71	–
257.41 K	42.2	–
259.48 K	43.1	–
260 K	43.16	–
261.91 K	43.48	–
262.39 K	43.37	–
264.34 K	43.87	–
266.76 K	44.33	–
269.18 K	44.87	–
270 K	44.55	–
271.59 K	45.53	–
273.99 K	47.53	–
274.34 K	–	85.72
276.82 K	45.8	85.38
278.53 K	–	85.14
280 K	–	84.97
282.13 K	–	84.72
285.21 K	–	84.64
286.94 K	–	84.47
289.3 K	–	84.14
290 K	–	84.05
291.67 K	–	83.97
294.02 K	–	83.81
296.38 K	–	83.72
298.15 K	–	83.47
298.72 K	–	83.56
300 K	–	83.39
301.66 K	–	83.39
305.18 K	–	83.14
308.67 K	–	83.08
310 K	–	82.96
312.17 K	–	82.92
315.64 K	–	82.85
319.1 K	–	82.78
320 K	–	82.7
322.54 K	–	82.69
325.97 K	–	82.58
329.39 K	–	82.62
330 K	–	82.52
332.72 K	–	82.55
336.11 K	–	82.57
339.47 K	–	82.65
340 K	–	82.67
342.82 K	–	82.74
346.15 K	–	82.71
350 K	–	82.8

— the NIST ThermoML archive (doi:10.1016/j.jct.2005.09.005)
